Values of other authors as cited in patent US6939558B2, “Intravaginal devices containing progesterone for estrus synchronization and related proceses” (Akzo Nobel N.V., priority 2001, dated 2005).

Tested on: bovines
Settings: 1 mg Estradiol Benzoate 24 hours after removal of the device

C[C@]12CC[C@@H]3c4ccc(OC(=O)c5ccccc5)cc4CC[C@H]3[C@@H]1CC[C@@H]2O [Estradiol Benzoate]
ovulation after removal of the device: 70 h
